Test results as given in paper PMC7300299, “Anticholinergic Drugs Interact With Neuroprotective Chaperone L-PGDS and Modulate Cytotoxicity of Aβ Amyloids” (Frontiers in Pharmacology, 2020).

Target: T1, human lipocalin-type prostaglandin D synthase (L-PGDS), wild type (Homo sapiens, UniProt P41222)
T1 construct: gene PTGDS; recombinant wild type, pNIC-CH vector, E. coli Rosetta 2 (DE3), Superdex 75 purified
T1 sequence (P41222 23-190): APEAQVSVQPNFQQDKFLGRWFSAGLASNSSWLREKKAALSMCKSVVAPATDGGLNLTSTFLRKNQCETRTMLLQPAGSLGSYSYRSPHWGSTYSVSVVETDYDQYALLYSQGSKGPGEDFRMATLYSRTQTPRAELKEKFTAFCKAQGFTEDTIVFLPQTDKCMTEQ
Assay: ITC (reverse titration, L-PGDS into drug)
Conditions: read-out: Binding affinities and thermodynamic parameters / Kd^a
Description: ITC (reverse titration, L-PGDS into drug) on human lipocalin-type prostaglandin D synthase (L-PGDS), wild type

O=c1n(CCCN2CCN(c3cccc(Cl)c3)CC2)nc2ccccn12 [TRD, Trazodone]
Kd: 6.5 ± 0.2 µM

CN(C)CCC(c1ccc(Cl)cc1)c1ccccn1 (centres unmarked) [CPM, Chlorpheniramine]
Kd: 5.7 ± 0.2 µM
